From ChEMBL document CHEMBL3046903, “Systemic action of novel neonicotinoid insecticide IPP-10 and its effect on the feeding behaviour of Rhopalosiphum padi on wheat” (2010)
Values after ≈ are worked out from the molar mass of the structure shown. Active and inactive are the calls of the source. The calls are words filed in the database; no cut-off is given here.

Columns and labels:
[1] = test system: Rhopalosiphum padi; assay: Contact toxicity against Rhopalosiphum padi infested wheat plant applied as spray measured after 24 hr; type: functional
[2] = test system: Rhopalosiphum padi; assay: Insecticidal activity against adult Rhopalosiphum padi infested wheat plant assessed as bout duration of phloem ingestion at 0.4 mg/l applied to the roots for 6 hr by electrical penetration graphical analysis (reference value: 277.2 +/- 30.8 min); type: functional
[3] = test system: Rhopalosiphum padi; assay: Insecticidal activity against adult Rhopalosiphum padi infested wheat plant assessed as total time of salivation into sieve elements at 0.4 mg/l applied to the roots for 6 hr by electrical penetration graphical analysis (reference value: 35.4 +/- 6.8 secs); type: functional
[4] = test system: Rhopalosiphum padi; assay: Insecticidal activity against adult Rhopalosiphum padi infested wheat plant assessed as total time of phloem ingestion at 0.4 mg/l applied to the roots for 6 hr by electrical penetration graphical analysis (reference value: 296.4 +/- 39.3 min); type: functional
[5] = test system: Rhopalosiphum padi; assay: Insecticidal activity against adult Rhopalosiphum padi infested wheat plant assessed as total time of xylem ingestion at 0.4 mg/l applied to the roots for 6 hr by electrical penetration graphical analysis (reference value: 23.1 +/- 4.5 min); type: functional
[6] = test system: Rhopalosiphum padi; assay: Insecticidal activity against adult Rhopalosiphum padi infested wheat plant assessed as reduction in xylem ingestion at 0.4 mg/l applied to the roots for 6 hr by electrical penetration graphical analysis relative to control; type: functional, organism-based
[7] = test system: Rhopalosiphum padi; assay: Toxicity against first-instar nymph of Rhopalosiphum padi assessed as reduction in weight at 0.4 mg/l applied to roots measured after 7 days relative to control; type: functional, organism-based
[8] = test system: Rhopalosiphum padi; assay: Insecticidal activity against adult Rhopalosiphum padi infested wheat plant assessed as total time of phloem ingestion at 2 mg/l applied to the roots for 6 hr by electrical penetration graphical analysis (reference value: 296.4 +/- 39.3 min); type: functional
[9] = test system: Rhopalosiphum padi; assay: Toxicity against Rhopalosiphum padi infested wheat plant assessed as mortality at 1000 mg/l applied to upper plant for 1 min followed by basipetal transportation for 48 hr measured 48 hr after removal of upper plant parts relative to control; type: functional
[10] = test system: Rhopalosiphum padi; assay: Insecticidal activity against adult Rhopalosiphum padi infested wheat plant assessed as bout duration of xylem ingestion at 0.4 mg/l applied to the roots for 6 hr by electrical penetration graphical analysis (reference value: 20.4 +/- 4.5 min); type: functional
[11] = test system: Rhopalosiphum padi; assay: Insecticidal activity against adult Rhopalosiphum padi infested wheat plant assessed as total time of salivation into sieve elements at 2 mg/l applied to the roots for 6 hr by electrical penetration graphical analysis (reference value: 35.4 +/- 6.8 secs); type: functional
[12] = test system: Rhopalosiphum padi; assay: Insecticidal activity against adult Rhopalosiphum padi infested wheat plant assessed as time taken for first xylem ingestion occurrence at 0.4 mg/l applied to the roots for 6 hr by electrical penetration graphical analysis (reference value: 145.5 +/- 27.1 min); type: functional
[13] = test system: Rhopalosiphum padi; assay: Insecticidal activity against adult Rhopalosiphum padi infested wheat plant assessed as bout duration of xylem ingestion at 2 mg/l applied to the roots for 6 hr by electrical penetration graphical analysis (reference value: 20.4 +/- 4.5 min); type: functional
[14] = test system: Rhopalosiphum padi; assay: Insecticidal activity against adult Rhopalosiphum padi infested wheat plant assessed as reduction in occurrences of salivation into sieve elements at 0.4 mg/l applied to the roots for 6 hr by electrical penetration graphical analysis relative to control; type: functional, organism-based
[15] = test system: Rhopalosiphum padi; assay: Insecticidal activity against adult Rhopalosiphum padi infested wheat plant assessed as reduction in occurrences of phloem ingestion at 0.4 mg/l applied to the roots for 6 hr by electrical penetration graphical analysis relative to control; type: functional, organism-based
[16] = test system: Rhopalosiphum padi; assay: Toxicity against first-instar nymph of Rhopalosiphum padi assessed as time until reproductive maturity at 0.4 mg/l applied to roots (reference value: 6.6 +/- 0.52 days); type: functional
[17] = test system: Rhopalosiphum padi; assay: Toxicity against first-instar nymph of Rhopalosiphum padi assessed as reduction in reproductive rate at 0.4 mg/l applied to roots measured after 16 days relative to control; type: functional, organism-based
[18] = test system: Rhopalosiphum padi; assay: Insecticidal activity against adult Rhopalosiphum padi infested wheat plant assessed as frequency of xylem ingestion at 0.4 mg/l applied to the roots for 6 hr by electrical penetration graphical analysis (reference value: 8.2 +/- 0.3 Hz); type: functional
[19] = test system: Rhopalosiphum padi; assay: Insecticidal activity against adult Rhopalosiphum padi infested wheat plant assessed as bout duration of salivation into sieve elements at 2 mg/l applied to the roots for 6 hr by electrical penetration graphical analysis (reference value: 32.4 +/- 3 secs); type: functional
[20] = test system: Rhopalosiphum padi; assay: Insecticidal activity against adult Rhopalosiphum padi infested wheat plant assessed as reduction in occurrences of salivation into sieve elements at 2 mg/l applied to the roots for 6 hr by electrical penetration graphical analysis relative to control; type: functional, organism-based
[21] = test system: Rhopalosiphum padi; assay: Insecticidal activity against adult Rhopalosiphum padi infested wheat plant assessed as time taken for first phloem activity occurrence at 0.4 mg/l applied to the roots for 6 hr by electrical penetration graphical analysis (reference value: 141.9 +/- 18.1 min); type: functional
[22] = test system: Rhopalosiphum padi; assay: Insecticidal activity against adult Rhopalosiphum padi infested wheat plant assessed as reduction in occurrences of phloem ingestion at 2 mg/l applied to the roots for 6 hr by electrical penetration graphical analysis relative to control; type: functional, organism-based
[23] = test system: Rhopalosiphum padi; assay: Insecticidal activity against adult Rhopalosiphum padi infested wheat plant assessed as total time of xylem ingestion at 2 mg/l applied to the roots for 6 hr by electrical penetration graphical analysis (reference value: 23.1 +/- 4.5 min); type: functional
[24] = test system: Rhopalosiphum padi; assay: Insecticidal activity against adult Rhopalosiphum padi infested wheat plant assessed as frequency of phloem ingestion at 0.4 mg/l applied to the roots for 6 hr by electrical penetration graphical analysis (reference value: 2.85 +/- 0.18 Hz); type: functional
[25] = test system: Rhopalosiphum padi; assay: Toxicity against Rhopalosiphum padi infested wheat plant assessed as mortality at 1000 mg/l applied to upper plant for 1 min followed by basipetal transportation for 48 hr measured 24 hr after removal of upper plant parts relative to control; type: functional
[26] = test system: Rhopalosiphum padi; assay: Toxicity against Rhopalosiphum padi infested wheat plant applied to the roots measured after 48 hr; type: functional
[27] = test system: Rhopalosiphum padi; assay: Insecticidal activity against adult Rhopalosiphum padi infested wheat plant assessed as bout duration of phloem ingestion at 2 mg/l applied to the roots for 6 hr by electrical penetration graphical analysis (reference value: 277.2 +/- 30.8 min); type: functional
[28] = test system: Rhopalosiphum padi; assay: Toxicity against Rhopalosiphum padi infested wheat plant applied to the roots measured after 24 hr; type: functional
[29] = test system: Rhopalosiphum padi; assay: Toxicity against Rhopalosiphum padi infested wheat plant assessed as mortality at 1000 mg/l applied to upper plant for 1 min followed by basipetal transportation for 24 hr measured 48 hr after removal of upper plant parts relative to control; type: functional
[30] = test system: Rhopalosiphum padi; assay: Insecticidal activity against adult Rhopalosiphum padi infested wheat plant assessed as bout duration of salivation into sieve elements at 0.4 mg/l applied to the roots for 6 hr by electrical penetration graphical analysis (reference value: 32.4 +/- 3 secs); type: functional
[31] = test system: Rhopalosiphum padi; assay: Toxicity against Rhopalosiphum padi infested wheat plant assessed as mortality at 1000 mg/l applied to upper plant for 1 min followed by basipetal transportation for 24 hr measured 24 hr after removal of upper plant parts relative to control; type: functional
[32] = test system: Rhopalosiphum padi; assay: Insecticidal activity against adult Rhopalosiphum padi infested wheat plant assessed as reduction in xylem ingestion at 2 mg/l applied to the roots for 6 hr by electrical penetration graphical analysis relative to control; type: functional, organism-based

In the case of `CC1CC(O)N2CCN(Cc3ccc(Cl)nc3)C2=C1[N+](=O)[O-]` (centres undefined), the LC50 [1] is reported as 2.45 µg/mL (≈ 7.54 µM), the Time [2] is reported as 206.8 min and the Time [3] is reported as 64.3 s. The Time [4] was 218.8 min, the Time [5] was 10.4 min and the Activity [6] was “inactive”. The Activity [7] was “Active”, the Time [8] was 0 min and the Activity [9] was 59.9%. It also gave a Time [10] of 9.7 min, a Time [11] of 0 s and a Time [12] of 141.5 min. For the same molecule, the Time [13] was 0 min, the Activity [14] was “inactive” and the Activity [15] was “inactive”. The Time [16] was 8.39 days, the Activity [17] was “Active” and the Activity [18] was 7.03 Hz. For the same molecule, the Time [19] was 0 s, the Activity [20] was “Active” and the Time [21] was 139.8 min. For the same molecule, the Activity [22] was “Active”, the Time [23] was 0 min and the Activity [24] was 1.96 Hz. The Activity [25] was 18.4%, the LC15 [26] was 0.09 µg/mL (≈ 0.277 µM) and the LC50 ([26]; Rhopalosiphum padi, 48 h) was 2.4 µg/mL (≈ 7.39 µM). The Time [27] was 0 min, the LC15 [28] was 0.4 µg/mL (≈ 1.23 µM) and the LC50 ([28]; Rhopalosiphum padi, 24 h) was 23.4 µg/mL (≈ 72.1 µM). For the same molecule, the Activity [29] was 33.2%, the Time [30] was 59.5 s and the Activity [31] was 14.3%. The Activity [32] was “Active”.
In the case of `O=[N+]([O-])/N=C1\NCCN1Cc1ccc(Cl)nc1` [IMIDACLOPRID], the LC50 [1] is reported as 0.9 µg/mL (≈ 3.52 µM), the Activity [9] is reported as 7.1% and the Activity [25] is reported as 3.5%. For the same molecule, the Activity [29] was 6.7% and the Activity [31] was 3.1%.
